These results are taken from US20110224208A1, “NOVEL INHIBITORS OF FLAVIVIRUS REPLICATION” (KATHOLIEKE UNIVERSITEIT LEUVEN, K.U. LEUVEN R&D, priority 2008, published 2011).

The test system of data set [1] is HCV replicon (RNA) synthesis. The data set is described as follows: Quantitative analysis of HCV replicon RNA by Taqman real-time RT-PCR in Huh-5-2 cells. The data set is classed as cell-based, Hepatitis C virus. The following applies: for CT: Huh-5-2 cells, untreated 26.27 ± 0.34; for Delta CT: higher Delta CT = more profound inhibition of viral RNA synthesis; for EC50: Hepatitis C virus, Huh-5-2, concentration required to reduce the synthesis of HCV replicon by 50% as determined by real-time quantitative RT-PCR. Here is the method:
Replicon cells were plated at 7.5×10^3 cells per well in a 96-well plate plates at 37° C. and 5% CO2 in Dulbecco's modified essential medium containing 10% fetal calf serum, 1% nonessential amino acids and 1 mg/ml Geneticin. After allowing 24 h for cell attachment, different dilutions of compound were added to the cultures. Plates were incubated for 5 days, at which time RNA was extracted using the Qiamp Rneazyi Kit (Qiagen, Hilden, Germany). […] After initial activation of uracil-N-glycosylase at 50° C. for 2 minutes, RT was performed at 60° C. for 30 minutes, followed by inactivation of uracil-N-glycosylase at 95° C. for 5 minutes. Subsequent PCR amplification consisted of 40 cycles of denaturation at 94° C. for 20 seconds and annealing and extension at 62° C. for 1 minute in an ABI 7700 sequence detector. For each PCR run, negative template and positive template samples were used. The cycle threshold value (Ct-value) is defined as the number of PCR cycles for which the signal exceeds the baseline, which defines a positive value. The sample was considered to be positive if the Ct-value was <50. Results are expressed as genomic equivalents (GE).
(A replicon is a self-replicating genome or part of one, used to study replication in cells.)

A short description of data set [2]: Proliferation of exponentially growing Huh-5-2 cells (MTS method). The note with it: human. In short, it runs like this: (§1)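 Huh-5-2 cells carrying the luciferase HCV replicon, seeded 24 h, then exposed to serial compound dilutions without G418 for 72 h at 37° C, 5% CO2. Replication read as luciferase luminescence, expressed as percentage of untreated cultures; culture density measured in parallel by MTS.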
On the technique in general: Tetrazolium assays rely on reduction of a dye to a coloured formazan, in cell work by metabolically active cells.

Data set [3] has as its system HCV replicon I389luc-ubi-neo/NS3-3'/5.1. The data set is described as follows: Anti-HCV replicon assay (luciferase activity) in Huh-5-2 cells. It is filed as cell-based, Hepatitis C virus. The note with it: Hepatitis C virus, concentration required to inhibit luciferase activity in the replicon system by 50%. In short, it runs like this: as §1
[4] abbreviates: CC50, concentration required to inhibit the proliferation of exponentially growing Huh-5-2 cells by 50%, Table 2.
[5] abbreviates: CC50, concentration required to inhibit the proliferation of exponentially growing Huh-5-2 cells by 50%, Table 4.

Converted amounts (≈) assume the structure as drawn. Read-outs that look alike come from different tables or passages of the source. Bounds are passed on as bounds.

Take `COCCN1C(=O)c2ccccc2C(C(=O)Nc2cccc(OC)c2)C1c1cccs1` (stereo not drawn) [2-(2-methoxyethyl)-N-(3-methoxyphenyl)-1-oxo-3-(thiophen-2-yl)-1,2,3,4-tetrahydroisoquinoline-4-carboxamide]: the CT in data set [1] (5 ug/ml) was found to be 28.65; in data set [1] (10 ug/ml), 29.29; in data set [1] (20 ug/ml) it was 29.24. In addition, the figures for the “Delta CT” value in data set [1] (5 ug/ml), in data set [1] (10 ug/ml) and in data set [1] (20 ug/ml) were 2.38, 3.02 and 2.97, respectively.
The term CC50 denotes the concentration giving 50% cytotoxicity. The term EC50 denotes the concentration needed to bring the measured effect to its halfway point. Read a low EC50 as greater potency. As a reminder, the IC50 is the concentration that gives 50% inhibition. For `COc1cccc(NC(=O)C2c3ccccc3C(=O)N(CC3CCCO3)C2c2cccs2)c1` (stereo not drawn) [C31, N-(3-methoxyphenyl)-1-oxo-2-((tetrahydrofuran-2-yl)methyl)-3-(thiophen-2-yl)-1,2,3,4-tetrahydroisoquinoline-4-carboxamide], the figures for the CC50 at 72 h in data set [2] (setting [4]) and in data set [2] (setting [5]) were 66.5 µg/mL (≈ 144 µM) and greater than 50 µg/mL, respectively. For the same compound, in data set [1], the EC50 was determined as 18 µg/mL (≈ 38.9 µM). Besides, the IC50 in data set [3] (Huh-5-2, 72 h) is 1.1 µg/mL (≈ 2.38 µM).
On the same counts, the results for `COCCN1C(=O)c2cc(C)ccc2C(C(=O)Nc2cccc(OC)c2)C1c1cccs1` (stereo not drawn) [C41, 2-(2-Methoxyethyl)-N-(3-methoxyphenyl)-7-methyl-1-oxo-3-(thiophen-2-yl)-1,2,3,4-tetrahydroisoquinoline-4-carboxamide] are 107 µg/mL (≈ 238 µM), greater than 50 µg/mL, 0.28 µg/mL (≈ 0.621 µM) and 0.5 µg/mL (≈ 1.11 µM).
In data set [1], `COCCN1C(=O)c2ccccc2C(C(=O)Nc2ccc(C(=O)OC)cc2)C1c1cccs1` (stereo not drawn) [C45, Methyl 4-(2-(2-methoxyethyl)-1-oxo-3-(thiophen-2-yl)-1,2,3,4-tetrahydroisoquinoline-4-carboxamido)benzoate] returned a concentration giving a half-maximal response (EC50) of 12 µg/mL (≈ 25.8 µM). This compound gave an IC50 in data set [3] (Huh-5-2, 72 h) of 0.1 µg/mL (≈ 0.215 µM).
For the compound `CCOC(=O)c1cccc(NC(=O)C2c3ccccc3C(=O)N(CCOC)C2c2cccs2)c1` (stereo not drawn) [C46, Ethyl 3-(2-(2-methoxyethyl)-1-oxo-3-(thiophen-2-yl)-1,2,3,4-tetrahydroisoquinoline-4-carboxamido)benzoate], the cytotoxic concentration (CC50) at 72 h in data set [2] (setting [4]) was 86.3 µg/mL (≈ 180 µM); in data set [2] (setting [5]), greater than 50 µg/mL. In addition, the EC50 in data set [1] worked out at 1.19 µg/mL (≈ 2.49 µM). For the same compound, in data set [3] (Huh-5-2, 72 h), half-maximal inhibition (IC50) required 1.4 µg/mL (≈ 2.93 µM).
With `COCCN1C(=O)c2ccccc2C(C(=O)Nc2cccc(F)c2)C1c1cccs1` (stereo not drawn) [C47, N-(3-fluorophenyl)-2-(2-methoxyethyl)-1-oxo-3-(thiophen-2-yl)-1,2,3,4-tetrahydroisoquinoline-4-carboxamide], the response in data set [1] was half-maximal at 1.42 µg/mL (≈ 3.35 µM) (EC50). The compound also had an IC50 in data set [3] (Huh-5-2, 72 h) of 0.4 µg/mL (≈ 0.942 µM).
On the same counts, the results for `COCCN1C(=O)c2ccccc2C(C(=O)Nc2ccc(OC)c(OC)c2)C1c1cccs1` (stereo not drawn) [C48, N-(3,4-dimethoxyphenyl)-2-(2-methoxyethyl)-1-oxo-3-(thiophen-2-yl)-1,2,3,4-tetrahydroisoquinoline-4-carboxamide] are 0.6 µg/mL (≈ 1.29 µM) and 0.3 µg/mL (≈ 0.643 µM).
On the same counts, the results for `COCCN1C(=O)c2ccccc2C(C(=O)Nc2ccc(Cl)cc2)C1c1cccs1` (stereo not drawn) [C49, N-(4-chlorophenyl)-2-(2-methoxyethyl)-1-oxo-3-(thiophen-2-yl)-1,2,3,4-tetrahydroisoquinoline-4-carboxamide] are 0.85 µg/mL (≈ 1.93 µM) and 0.1 µg/mL (≈ 0.227 µM).
On the same counts, the results for `COCCN1C(=O)c2c(F)cccc2C(C(=O)Nc2cccc(OC)c2)C1c1cccs1` (stereo not drawn) [C51, 8-Fluoro-2-(2-methoxyethyl)-N-(3-methoxyphenyl)-1-oxo-3-(thiophen-2-yl)-1,2,3,4-tetrahydroisoquinoline-4-carboxamide] are less than 0.4 µg/mL and 0.5 µg/mL (≈ 1.1 µM).
Take `COCCN1C(=O)c2c(ccc(OC)c2F)C(C(=O)Nc2cccc(OC)c2)C1c1cccs1` (stereo not drawn) [C128, 8-fluoro-7-methoxy-2-(2-methoxyethyl)-N-(3-methoxyphenyl)-1-oxo-3-(thiophen-2-yl)-1,2,3,4-tetrahydroisoquinoline-4-carboxamide]: the EC50 in data set [1] came out at 0.14 µg/mL (≈ 0.289 µM). This compound registered an IC50 in data set [3] (Huh-5-2, 72 h) of 0.4 µg/mL (≈ 0.826 µM).
`COCCN1C(=O)c2ccccc2C(C(=O)Nc2cc(C(C)(C)C)on2)C1c1cccs1` (stereo not drawn) [C142, N-(5-tert-butylisoxazol-3-yl)-2-(2-methoxyethyl)-1-oxo-3-(thiophen-2-yl)-1,2,3,4-tetrahydroisoquinoline-4-carboxamide] returned an EC50 in data set [1] of 0.22 µg/mL (≈ 0.485 µM). This compound returned an IC50 in data set [3] (Huh-5-2, 72 h) of 0.04 µg/mL (≈ 0.0882 µM).
For `COCCN1C(=O)c2ccccc2C(C(=O)Nc2ccc(-n3cccc3)cc2)C1c1ccc(Cl)s1` (stereo not drawn) [C153, N-(4-(1H-pyrrol-1-yl)phenyl)-3-(5-chlorothiophen-2-yl)-2-(2-methoxyethyl)-1-oxo-1,2,3,4-tetrahydroisoquinoline-4-carboxamide] the same measures were 1.12 µg/mL (≈ 2.21 µM) and 0.104 µg/mL (≈ 0.206 µM).
The compound `COCCN1C(=O)c2ccccc2C(C(=O)Nc2ccc(-c3csc(C)n3)cc2)C1c1cccs1` (stereo not drawn) [C157, 2-(2-methoxyethyl)-N-(4-(2-methylthiazol-4-yl)phenyl)-1-oxo-3-(thiophen-2-yl)-1,2,3,4-tetrahydroisoquinoline-4-carboxamide] had an EC50 in data set [1] of 0.036 µg/mL (≈ 0.0715 µM). Moreover, the 50% inhibitory concentration (IC50) in data set [3] (Huh-5-2, 72 h) was 0.04 µg/mL (≈ 0.0794 µM).
On the same counts, the results for `COCCN1C(=O)c2ccccc2C(C(=O)Nc2ccc3nc(C)ccc3c2)C1c1cccs1` (stereo not drawn) [C168, 2-(2-methoxyethyl)-N-(2-methylquinolin-6-yl)-1-oxo-3-(thiophen-2-yl)-1,2,3,4-tetrahydroisoquinoline-4-carboxamide] are 0.048 µg/mL (≈ 0.102 µM) and 0.037 µg/mL (≈ 0.0785 µM).
On the same counts, the results for `COCCN1C(=O)c2ccccc2C(C(=O)Nc2ccc(-c3ncccn3)cc2)C1c1cccs1` (stereo not drawn) [C175, 2-(2-methoxyethyl)-1-oxo-N-(4-(pyrimidin-2-yl)phenyl)-3-(thiophen-2-yl)-1,2,3,4-tetrahydroisoquinoline-4-carboxamide] are 0.046 µg/mL (≈ 0.0949 µM) and 0.057 µg/mL (≈ 0.118 µM).
On the same counts, the results for `COCCN1C(=O)c2ccccc2C(C(=O)Nc2ccc(-c3cnco3)cc2)C1c1cccs1` (stereo not drawn) [C178, 2-(2-methoxyethyl)-N-(4-(oxazol-5-yl)phenyl)-1-oxo-3-(thiophen-2-yl)-1,2,3,4-tetrahydroisoquinoline-4-carboxamide] are 0.036 µg/mL (≈ 0.076 µM) and 0.035 µg/mL (≈ 0.0739 µM).
`COCCN1C(=O)c2ccccc2C(C(=O)Nc2ccc(-c3noc(C)n3)cc2)C1c1cccs1` (stereo not drawn) [C187, 2-(2-methoxyethyl)-N-(4-(5-methyl-1,2,4-oxadiazol-3-yl)phenyl)-1-oxo-3-(thiophen-2-yl)-1,2,3,4-tetrahydroisoquinoline-4-carboxamide] came in with an EC50 in data set [1] of less than 0.016 µg/mL. For the same compound, the IC50 in data set [3] (Huh-5-2, 72 h) is 0.01 µg/mL (≈ 0.0205 µM).
For `COCCN1C(=O)c2ccccc2C(C(=O)Nc2ccc(Oc3cncc(C)n3)cc2)C1c1cccs1` (stereo not drawn) [C191, 2-(2-methoxyethyl)-N-(4-(6-methylpyrazin-2-yloxy)phenyl)-1-oxo-3-(thiophen-2-yl)-1,2,3,4-tetrahydroisoquinoline-4-carboxamide] the same measures were 0.013 µg/mL (≈ 0.0253 µM) and 0.013 µg/mL (≈ 0.0253 µM).
`COCCN1C(=O)c2ccccc2C(C(=O)Nc2ccc(OC3CCOCC3)cc2)C1c1cccs1` (stereo not drawn) [C218, 2-(2-methoxyethyl)-1-oxo-N-(4-(tetrahydro-2H-pyran-4-yloxy)phenyl)-3-(thiophen-2-yl)-1,2,3,4-tetrahydroisoquinoline-4-carboxamide] had a CC50 at 72 h in data set [2] (setting [4]) of 83.8 µg/mL (≈ 165 µM). This compound yielded an IC50 in data set [3] (Huh-5-2, 72 h) of 0.1 µg/mL (≈ 0.197 µM).
For `COCCN1C(=O)c2ccccc2C(C(=O)Nc2ccc3ncoc3c2)C1c1cccs1` (stereo not drawn) [C219, N-(benzo[d]oxazol-6-yl)-2-(2-methoxyethyl)-1-oxo-3-(thiophen-2-yl)-1,2,3,4-tetrahydroisoquinoline-4-carboxamide] the same measures were 91.1 µg/mL (≈ 204 µM) and 1.14 µg/mL (≈ 2.55 µM).
In turn, `COCCN1C(=O)c2ccccc2C(C(=O)Nc2ccc(C#N)c(C(F)(F)F)c2)C1c1cccs1` (stereo not drawn) [C221, N-(4-cyano-3-(trifluoromethyl)phenyl)-2-(2-methoxyethyl)-1-oxo-3-(thiophen-2-yl)-1,2,3,4-tetrahydroisoquinoline-4-carboxamide] had a CC50 at 72 h in data set [2] (setting [4]) of 3.52 µg/mL (≈ 7.05 µM). The IC50 in data set [3] (Huh-5-2, 72 h) was found to be 0.36 µg/mL (≈ 0.721 µM).
In data set [2] (Huh-5-2 cells (Huh-5 cell line with persistent HCV replicon)), `COCCN1C(=O)c2ccccc2C(C(=O)Nc2nc3ccc(OC)cc3s2)C1c1ccc(F)cc1` (stereo not drawn) [C273, 3-(4-fluorophenyl)-N-(6-methoxybenzo[d]thiazol-2-yl)-2-(2-methoxyethyl)-1-oxo-1,2,3,4-tetrahydroisoquinoline-4-carboxamide] came in with a CC50 at 72 h of 14.9 µg/mL (≈ 29.5 µM). Further, the IC50 in data set [3] (72 hours, read-out: IC50) was determined as 1.4 µg/mL (≈ 2.77 µM).
